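Cells were grown in 96-well plates and exposed to each compound for 48 hours at five concentrations; endpoints were interpolated linearly between bracketing concentrations, or set to the highest concentration if not reached. GI50 = concentration required for 50% inhibition of growth.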 Active and inactive are the calls of the source. Cut-off read from the data, not from the text of the source: active = GI50 up to about 1.1 µM and inactive = higher.
Key:
Test in all cases: DTP human tumour cell line panel, 48 h
[1] = tested on: CAKI-1
[2] = tested on: CCRF-CEM
[3] = tested on: COLO 205
[4] = tested on: HCT-116
[5] = tested on: HOP-62
[6] = tested on: Hs-578T
[7] = tested on: KM12
[8] = tested on: LOX IMVI
[9] = tested on: MDA-MB-435
[10] = tested on: NCI-H23
[11] = tested on: NCI-H522
[12] = tested on: NCI/ADR-RES
[13] = tested on: OVCAR-3
[14] = tested on: RXF 393
[15] = tested on: SF-295
[16] = tested on: SK-MEL-5
[17] = tested on: SN12C
[18] = tested on: SNB-19
[19] = tested on: UACC-257

SMILES	GI50 [1]	GI50 [2]	GI50 [3]	GI50 [4]	GI50 [5]	GI50 [6]	GI50 [7]	GI50 [8]	GI50 [9]	GI50 [10]	GI50 [11]	GI50 [12]	GI50 [13]	GI50 [14]	GI50 [15]	GI50 [16]	GI50 [17]	GI50 [18]	GI50 [19]
Cc1[nH]n(-c2nc3c(c(=O)[nH]2)CCCC3)c(=O)c1CCO	60 µM (inactive)	> 100 µM (inactive)	> 100 µM (inactive)	> 100 µM (inactive)	> 100 µM (inactive)	> 100 µM (inactive)	> 100 µM (inactive)	> 100 µM (inactive)	> 100 µM (inactive)	> 100 µM (inactive)	> 100 µM (inactive)	> 100 µM (inactive)	> 100 µM (inactive)	> 100 µM (inactive)	> 100 µM (inactive)	> 100 µM (inactive)	> 100 µM (inactive)	> 100 µM (inactive)	> 100 µM (inactive)
C=Cc1ccccc1C1(O)C=CC(OC)(OC)C=C1	5.68 µM (inactive)	2.94 µM (inactive)	10.8 µM (inactive)	3.4 µM (inactive)	6.31 µM (inactive)	21.4 µM (inactive)	0.617 µM (active)	–	4.36 µM (inactive)	4.46 µM (inactive)	7.26 µM (inactive)	4.81 µM (inactive)	3.05 µM (inactive)	4.97 µM (inactive)	17.8 µM (inactive)	13.8 µM (inactive)	8.24 µM (inactive)	15.8 µM (inactive)	11.8 µM (inactive)
C=CCNC(=S)NC=C(C(N)=O)C(N)=O	> 100 µM (inactive)	> 100 µM (inactive)	> 100 µM (inactive)	> 100 µM (inactive)	> 100 µM (inactive)	> 100 µM (inactive)	> 100 µM (inactive)	> 100 µM (inactive)	> 100 µM (inactive)	> 100 µM (inactive)	> 100 µM (inactive)	> 100 µM (inactive)	11.1 µM (inactive)	> 100 µM (inactive)	> 100 µM (inactive)	> 100 µM (inactive)	> 100 µM (inactive)	> 100 µM (inactive)	> 100 µM (inactive)
CC(=O)N1C(Nc2cccc3nc(C)ccc23)CCN1c1ccccc1 (configuration not stated)	> 10 µM (inactive)	> 10 µM (inactive)	> 10 µM (inactive)	> 10 µM (inactive)	> 10 µM (inactive)	> 10 µM (inactive)	–	> 10 µM (inactive)	> 10 µM (inactive)	> 10 µM (inactive)	> 10 µM (inactive)	> 10 µM (inactive)	> 10 µM (inactive)	> 10 µM (inactive)	> 10 µM (inactive)	> 10 µM (inactive)	> 10 µM (inactive)	> 10 µM (inactive)	> 10 µM (inactive)
CC(=O)c1cccn1/C=C(\OC(=O)OC(C)(C)C)c1ccc[nH]1	22 µM (inactive)	39.8 µM (inactive)	89.7 µM (inactive)	41.3 µM (inactive)	77.3 µM (inactive)	> 100 µM (inactive)	46.3 µM (inactive)	62.4 µM (inactive)	> 100 µM (inactive)	69.8 µM (inactive)	57 µM (inactive)	50.2 µM (inactive)	46.6 µM (inactive)	33.8 µM (inactive)	39.4 µM (inactive)	40.3 µM (inactive)	96.8 µM (inactive)	46.7 µM (inactive)	> 100 µM (inactive)
CC(=C\c1ccccc1)/C=C(\C#N)C(N)=O	> 10 µM (inactive)	–	> 10 µM (inactive)	–	> 10 µM (inactive)	> 10 µM (inactive)	> 10 µM (inactive)	> 10 µM (inactive)	> 10 µM (inactive)	–	> 10 µM (inactive)	> 10 µM (inactive)	> 10 µM (inactive)	> 10 µM (inactive)	> 10 µM (inactive)	> 10 µM (inactive)	> 10 µM (inactive)	–	–

Source: ChEMBL document CHEMBL1201862, “PubChem BioAssay data set” (2004)
